Laboratory results taken from patent US20250250227A1, “AMINO LIPID COMPOUND, PREPARATION METHOD THEREFOR, COMPOSITION THEREOF AND USE THEREOF” (SHENZHEN SHENXIN BIOTECHNOLOGY CO., LTD., priority 2022, published 2025).

Columns and labels:
Female BALB/c mice [1] = assay: IFN-γ Elispot cellular immunity test, spleen lymphocytes of mice immunized with IN002.5.1 mRNA LNP; assay type: in vivo; conditions: 50 μL IM, spleen on 7th day after immunization, FIG. 2-4
Procedure: An IN002.5.1 mRNA-encapsulating lipid nanoparticle formulation was prepared according to the method as described in Experimental Example 1, with replacing the luciferase mRNA (Fluc mRNA) with IN002.5.1 mRNA, with a concentration of IN002.5.1 mRNA of 0.2 g/L, a mass ratio of IN002.5.1 mRNA to Lipid of 1:10, a particle size of 80-130 nm, and an encapsulation efficiency of 90% or higher.
The sequence of IN002.5.1 mRNA is one obtained by replacing all uracil (u) in SEQ ID NO. 1 with N1-methylpseudouridine. Of note is that the t (thymine) in the RNA sequence, SEQ ID NO. 1, in the Sequence Listing is actually u (uracil), according to the WIPO Standard ST. 26 for nucleotide or amino acid sequence listing.
(§1) Animal preparation: Female BALB/c mice of 6-8 weeks old were selected and raised in an SPF grade breeding room. Animal testing was conducted in strict accordance with the guidelines of national health institutions and animal ethics requirements.
Immunization of mice: Prior to injection of the test LNP formulations, the LNP formulations were gently and repeatedly inverted to thoroughly mix the formulation samples. A corresponding amount of the formulation samples were aspirated with a 1 ml insulin syringe, and the LNP formulations were injected by intramuscular injection (IM) […], with 8 mice per formulation. Each mouse was injected with 50 μL of the IN002.5.1 mRNA encapsulating lipid nanoparticle formulation.
Spleen acquisition: On the 7th day after immunization, 3 to 4 mice from each LNP immunization group were selected and euthanized, and their spleens were acquired in a super clean bench.
Isolation of lymphocytes: The spleens of mice were taken out in a super clean bench. 7 mL of mouse lymphocyte separation solution was added to a 6-well cell culture plate. Mouse spleen cells were ground with a syringe piston, and the suspension of the spleen cells was filtered through a cell screen and immediately transferred to a 15 mL centrifuge tube. […] RPMI 1640 medium was slowly added with keeping the liquid interface distinct. After centrifugation at 800 g with a horizontal rotor at room temperature for 30 minutes, a clear stratification can be visible. The lymphocyte layer was aspirated, then added with 10 mL RPMI 1640 medium, and inverted for washing. The cells were collected by centrifugation at 250 g for 10 min at room temperature, and the red blood cells were lysed. After completing lysis of red blood cells, the supernatant was poured, and the cells were resuspended in culture medium and counted.
Addition of stimulant and culture of lymphocyte: RPMI-1640 medium containing 10% fetal bovine serum was used to activate the pre-coated plate. After standing at room temperature for at least 30 min, the medium was removed, and a cell suspension at adjusted concentration was added ([…]). The medium used to resuspend the cells was used as a background negative control. 10 μL positive stimulant working solution (PMA+Ionomycin (dissolved in DPBS) was added to a positive control well; […] medium used to resuspend the cells was added to a negative control well; 10 µL/well of a peptide library diluted with RPMI 1640 was added to experimental wells. After all samples and the stimulant were added, the plate was covered, incubated in an incubator with 5% CO2 at 37° C. for 16-24 h.
Elispot detection after culture: The cells and the culture medium in the wells were dumped, and the wells were lysed with 200 μL/well of ice-cold deionized water at 4° C. for 10 min. The liquid in the wells were shaken out, and the wells were washed five times with PBS buffer. The wells were incubated with 100 μL/well of 1 μg/ml detection antibody for 2 h at room temperature; and after washing the plate 5 times with PBS, the wells were incubated with 100 μL/well of 1000-fold diluted enzyme labeled avidin (Streptavidin-HRP) for 1 h at room temperature. […]

Female BALB/c mice [2] = assay: In vivo safety of hEPO mRNA lipid nanoparticle: serum alanine aminotransferase (ALT) enzyme activity; conditions: hEPO mRNA LNP, 300 μL IV, serum 12 h after injection; FIG. 1
Procedure: A human erythropoietin mRNA (hEPO mRNA)-encapsulating lipid nanoparticle formulation was prepared according to the method as described in Experimental Example 1, with replacing the luciferase mRNA (Fluc mRNA) with human erythropoietin mRNA (hEPO mRNA), with a concentration of hEPO mRNA of 0.2 g/L, a mass ratio of hEPO mRNA to Lipid of 1:10, a particle size of 90-130 nm, and an encapsulation efficiency of above 90% or higher.
as §1
In vivo Delivery: Prior to injection of the test LNP formulations, the LNP formulations were gently and repeatedly inverted to thoroughly mix the formulation samples. A corresponding amount of the formulation samples were aspirated with a 1 ml insulin syringe, and the LNP formulations were injected by tail vein injection (IV), with 5 mice per formulation. Each mouse was injected with 300 μL of the human erythropoietin mRNA (hEPO mRNA)-encapsulating lipid nanoparticle formulation.
Serum acquisition: Blood samples of mice were collected 12 h after injection, placed in tubes without anticoagulants, and naturally coagulated at room temperature for 30-60 min, and then centrifuged at a speed of 3500 rpm for 10 min to obtain the supernatant, which was the serum.
The detection of alanine transaminase was carried out according to instructions of the kit (Nanjing Jiancheng Bioengineering Institute, Catalog. No. C009-2-1), and a standard curve was made using the standard provided in the kit. D-PBS was used in the experiment, which was purchased from Sangon Biotech (Shanghai) Co., Ltd., Catalog No. E607009-0600.
The method of detection of enzyme activity of alanine aminotransferase (ALT) in serum of the mice is as follows:
• (1) Enzymatic reaction: 0, 2, 4, 6, 8 and 10 μL of […] sodium pyruvate standard solution were sequentially added to 5 μL of 0.1 mol/L phosphate buffer, and the volume was supplemented to 25 μL with a matrix solution, and repeatedly aspirating and spitting with a pipette for mixing well; • (2) Addition reaction: 20 μL 2,4-dinitrophenylhydrazine solution was added to all reaction wells in (1), mixed by aspirating and spitting, and then placed in an incubator at 37° C. to react for 20 min; • (3) Developing: 200 μL of 0.4 mol/L NaOH solution was added to all reaction wells in (2) to stop the reaction, mixed by aspirating and spitting, and incubated at room temperature for 15 min. The OD value of each well was measured at 510 nm in a microplate reader; and • (4) Data processing of standard curve: The corresponding absolute OD value for each well was obtained by subtracting the OD value for 0 μL well from the measured OD value for each well, the corresponding ALT Karmen units being 0, 28, 57, 97, 150 and 200 U/L, respectively. The standard curve was obtain by taking the absolute OD value as the abscissa and the corresponding Karmen unit as the ordinate.
• (1) Reagent preparation: an ALT matrix solution was placed in an incubator at 37° C. for preheating; • (2) Enzymatic reaction: 5 μL diluted serum was aspirated and added to a 96-well plate, then 20 μL matrix solution was added to the corresponding sample well and mixed by repeatedly aspirating and spitting to avoid bubbling, and then placed in an incubator at 37° C. for 30 min; • (3) Addition reaction: 20 μL 2,4-dinitrophenylhydrazine was added to all reaction wells in (2), mixed by aspirating and spitting, and then reacted in an incubator at 37° C. for 20 min; • (4) Developing: 200 μL of 0.4 mol/L NaOH solution was added to all reaction wells in (3) to stop the reaction, mixed by aspirating and spitting, and then incubated at room temperature for 15 min. […]

Female BALB/c mice [3] = assay: Performance evaluation of in vivo delivery of Fluc mRNA lipid nanoparticle (IVIS, body and organs); conditions: Fluc mRNA LNP; for Liver (fluorescence expression intensity) / Spleen (fluorescence expression intensity): 75 μL IV; for Liver (fluorescence expression intensity) / Spleen (fluorescence expression intensity) / Total flux (fluorescence expression intensity) / (Spleen/Total Flux) * 100%: 6 hours after injection; for Liver (fluorescence expression intensity) / Spleen (fluorescence expression intensity) / Total flux (fluorescence expression intensity): IVIS; for Total flux (fluorescence expression intensity): 75 μL tail vein injection (IV); for (Spleen/Total Flux) * 100% / Multiple of spleen delivery/total delivery to amino lipid compound 118: IV; for Multiple of spleen delivery/total delivery to amino lipid compound 118: relative to amino lipid compound 118
Procedure: as §1
In vivo Delivery: prior to injection of the test LNP formulations, the LNP formulations were gently and repeatedly inverted to thoroughly mix the formulation samples. A corresponding amount of the formulation samples were aspirated with a 1 ml insulin syringe, and the LNP formulations were injected by tail vein injection (IV), with 3 mice in duplicate per formulation. Each mouse was injected with 75 μL of the luciferase mRNA (Fluc mRNA)-encapsulating lipid nanoparticle formulation prepared in Experimental Example 1.
6 hours after injection of LNP formulations, mice were injected with 200 μL D-Luciferin luciferase developing substrate (Catalog No. 122799; Manufacturer: Perkin Elmer). After the substrate was injected, the mice were anesthetized with isoflurane inhalation, and the injection time of luciferase developing substrate was recorded.
The encapsulation efficiency of the lipid nanoparticle encapsulating luciferase mRNA (Fluc mRNA) with a representative amino lipid compound and the fluorescence expression intensity induced by the same are shown in Table 4, with the amino lipid compound 118 as a control.
The multiple of spleen delivery/total delivery of fluorescence expression intensity induced by lipid nanoparticle encapsulating luciferase mRNA (Fluc mRNA) with a representative amino lipid compound to amino lipid compound 118 is shown in Table 5.

[4] = Preparation and characterisation of mRNA-encapsulating lipid nanoparticle (encapsulation efficiency, particle size); assay type: physicochemical; conditions: LNP encapsulating Fluc mRNA; Lipid:DSPC:CHO-HP:M-DMG-2000 48:10:40.5:1.5
Procedure: A specified amount of Fluc mRNA stock solution, 0.2 M sodium acetate buffer, and DEPC water were added to a container, and mixed well to obtain a water phase;
The amino lipid compound of the present disclosure, a helper lipid, a structural lipid, and a PEG-lipid were separately dissolved in absolute ethanol to prepare respective solutions at concentrations of 20 mg/mL, 10 mg/mL, 20 mg/mL, and 25 mg/mL, respectively. The above four solutions were pipetted at a molar ratio of Lipid:DSPC:CHO—HP:M-DMG-2000 of 48:10:40.5:1.5, and mixed well to prepare an alcohol phase. • (2) Encapsulation: The water phase and the alcohol phase were injected into a microfluidic chip at a flow rate of water phase: alcohol phase=12 mL/min: 4 mL/min by using a microfluidic preparation instrument (MPE-L2), and encapsulation was carried out at a flow rate of water phase: alcohol phase=9 mL/min: 3 mL/min to obtain mRNA-encapsulating lipid nanoparticle (mRNA-LNP). • (3) Dialysis: The product of step (2) was loaded in a dialysis bag and placed in a Tris Buffer-8% sucrose solution for replacement to remove ingredients such as residual ethanol, unassembled lipids. Dialysis was conducted for 2 h with magnetic stirring at room temperature and under protection from light (dialysate was replaced every 1 hour). • (4) The product of step (3) was sterilized by passing through a […] microporous membrane, and then packaged.
Lipid nanoparticle formulations encapsulating Fluc mRNA were prepared, with a concentration of Fluc mRNA of 0.2 g/L, a mass ratio of Fluc mRNA to Lipid of 1:10, a particle size of 80-130 nm, and a encapsulation efficiency of 85% or higher.
The encapsulation efficiency of the lipid nanoparticle encapsulating luciferase mRNA (Fluc mRNA) with a representative amino lipid compound and the fluorescence expression intensity induced by the same are shown in Table 4, with the amino lipid compound 118 as a control. […]

Female BALB/c mice [5] = assay: Humoral immunity test for total binding IgG antibody (ELISA, SARS-COV-2 antigen protein) in serum of immunized mice; assay type: in vivo; conditions: IN002.5.1 mRNA LNP, 50 μL IM, serum on 14th day after immunization; FIG. 5-6

## CCCCCCC(CCCCCC)OC(=O)CCCCCCCCC(CCCCCCCCC(=O)OC(CCCCCC)CCCCCC)OC(=O)N(CCCCC(=O)OC(C)CC)CCCN(C)C (stereo not shown) [Compound 302]
Female BALB/c mice [1]
  Cellular immunity effect (IFN-γ Elispot) compared to ALC0315: better cellular immunity effect

## CCCCCCC(CCCCCC)OC(=O)CCCCCCCCC(CCCCCCCCC(=O)OC(CCCCCC)CCCCCC)OC(=O)N(CCCCCC(=O)OCCCC)CCCN(C)C [Compound 252]
Female BALB/c mice [2]
  ALT enzyme activity (Karmen unit) compared to ALC0315 and SM-102: significantly lower ALT enzyme activity

## CCCCCCC(CCCCCC)OC(=O)CCCCCCCCC(CCCCCCCCC(=O)OC(CCCCCC)CCCCCC)OC(=O)N(CCCC(=O)OCCCC)CCCN(C)C [Compound 259]
Female BALB/c mice [3]
  Liver (fluorescence expression intensity): 1.37E+08
  Spleen (fluorescence expression intensity): 1.29E+07
  Total flux (fluorescence expression intensity): 6.40E+08
  (Spleen/Total Flux) * 100%: 2.02%
  Multiple of spleen delivery/total delivery to amino lipid compound 118: 5.93
Female BALB/c mice [2]
  ALT enzyme activity (Karmen unit) compared to ALC0315 and SM-102: significantly lower ALT enzyme activity
[4]
  Encapsulation efficiency: 94.08%

## CCCCCCC(CCCCCC)OC(=O)CCCCCCCCC(CCCCCCCCC(=O)OC(CCCCCC)CCCCCC)OC(=O)N(CCCC(=O)OC(C)C)CCCN(C)C [Compound 307]
Female BALB/c mice [1]
  Cellular immunity effect (IFN-γ Elispot) compared to ALC0315: better cellular immunity effect

## CCCCCCC(CCCCCC)OC(=O)CCCCCCCCC(CCCCCCCCC(=O)OC(CCCCCC)CCCCCC)OC(=O)N(CCCCC(=O)OCCCC)CCCN(C)C [Compound 255]
Female BALB/c mice [2]
  ALT enzyme activity (Karmen unit) compared to ALC0315 and SM-102: significantly lower ALT enzyme activity

## CCCCCCC(CCCCCC)OC(=O)CCCCCCCCC(CCCCCCCCC(=O)OC(CCCCCC)CCCCCC)OC(=O)N(CCCN(C)C)CC(=O)OCCC [Compound 269]
Female BALB/c mice [5]
  Humoral immunity effect (IgG titer) compared to ALC0315: better humoral immunity effect

## CCCCCCC(CCCCCC)OC(=O)CCCCCCCCC(CCCCCCCCC(=O)OC(CCCCCC)CCCCCC)OC(=O)N(CCCC(=O)OCCCCC)CCCN(C)C [Compound 260]
Female BALB/c mice [3]
  Liver (fluorescence expression intensity): 9.60E+07
  Spleen (fluorescence expression intensity): 3.27E+06
  Total flux (fluorescence expression intensity): 4.11E+08
  (Spleen/Total Flux) * 100%: 0.80%
  Multiple of spleen delivery/total delivery to amino lipid compound 118: 2.34
Female BALB/c mice [2]
  ALT enzyme activity (Karmen unit) compared to ALC0315 and SM-102: significantly lower ALT enzyme activity
[4]
  Encapsulation efficiency: 95.36%
